# Assay results as given in patent US8314068B2, “P2X7 inhibition of epithelial cancers and papillomas” (University Hospitals of Cleveland, priority 2009, dated 2012).
# “Also recorded” adds a separate entry of the source.
# Legend:
# [1] = system: mouse wild-type normal keratinocytes; experiment: DNA synthesis ([3H]-thymidine incorporation) in mouse wild-type normal keratinocytes; type: cell-based; settings: BzATP 100 μM 8 hours; oligonucleotides 100 μM 14 hours
# Experimental: FIG. 20 presents exemplary data showing the effects of pre-treatment with anti-sense P2X7 oligonucleotides (ASO) or random-control P2X7 oligonucleotides (RCO) (both at 100 μM for 14 hours), and of treatments with BzATP (100 μM, 8 hours) on [^3H]-thymidine incorporation in mouse wild-type normal keratinocytes (values are means±SD, n=4).
# Changes in DNA synthesis were determined in terms of [^3H]-thymidine incorporation as described Wang et al., “EGF facilitates epinephrine inhibition of P2X7-receptor mediated pore formation and apoptosis: a novel signaling network” Endocrinology 2005, 146:164-174. The radioactivity (dpm/mg Protein, determined by Bio-Rad Protein Assay solution [Hercules, Calif.]) of triplicated samples was determined by beta scintillation counting (Beckman LS1801 scintillation counter).
# HeLa cells = experiment: Apoptosis in HeLa cells; type: cell-based, human
# mouse skin = experiment: Local BzATP on normal mouse dorsal skin, 4 weeks (tolerability, apoptosis); type: in vivo
# Experimental: BzATP (100 μM in 200 μl [20 nmol, 14.3 μg, 1.0 μg/cm^2]), was applied twice weekly for 4 weeks on the posterior region of the shaved dorsal skin. The concentration/dose of BzATP and frequency of treatments were chosen based on the above discussed cell culture data. Each animal served as its own control by having vehicle-containing solution applied twice weekly for 4 weeks on the anterior region of the shaved dorsal skin.
# TUNEL assays in tissues cross sections were performed using DeadEnd™ Fluorometric TUNEL System (Promega, Madison, Wis.) according to the manufacturer's protocol. For TUNEL-P2X7 co-staining, tissue cross sections were first assayed for TUNEL, followed by P2X7 immunostaining.
# Experiments using mice were done according to an approved CWRU IACUC IRB protocol [2006-0141]. Experiments utilized 6-8 weeks old FVB female mice (obtained from Charles River, Wilmington, Mass.). The animal's dorsal skin (about 3×5 cm) was shaved using Oster animal clipper (Mountain Home, Ark.) followed by weekly application of Nair® hair remover lotion. Treatments included the application of one or more of the following drugs, directly onto the shaved dorsal skin: DMBA (50 μg/200 μl acetone [950 μM, 190 nmol, 3.3 μg/cm^2]); TPA (3 μg/200 μl acetone [20 μM, 4 nmol, 0.2 μg/cm^2]); BzATP (14.3 μg/200 μl of 2.3/1 vol/vol solution of propylene-glycol [PG]/ethanol [EtOH][100 μM, 20 nmol, 1.0 μg/cm^2]); or the BzATP vehicle only (200 μl of PG/EtOH). DMBA was applied once, while TPA and BzATP were applied twice a week. Skin neoplasia in the mice were induced by the “Two-Step” method, which involved tumor initiation by local treatment with 7,12-dimethylbenz(a)anthracene (DMBA), followed by tumor promotion with local treatment of 12-O-tetradecanoylphorbol-13-acetate (TPA). Guo et al., “Disruption of EphA2 receptor tyrosine kinase leads to increased susceptibility to carcinogenesis in mouse skin” Cancer Res 2006, 66:7050-7058. The concentration/dose of BzATP and frequency of treatments were chosen based on data in cultured cells (supra).
# The shaved dorsal skin was divided into two equal anterior and posterior areas. Each animal was treated with BzATP applied locally twice a week for […] on the anterior skin area; vehicle only was applied in parallel twice a week for 4 weeks on the posterior skin area. At the end of the experiment animals were euthanized by cervical dislocation and dorsal skin strips were obtained from each animal from the anterior and posterior skin areas for microscopic H&E tissue evaluation and P2X7 immunostaining.
# [2] = system: DMBA/TPA-induced skin papillomas; experiment: DMBA/TPA mouse skin papilloma model, 12 weeks (Experiment-3); type: in vivo
compound,measurement,setting,value
"Nc1ncnc2c1ncn2[C@@H]1O[C@H](COP(=O)(O)OP(=O)(O)OP(=O)(O)O)[C@@H](OC(=O)c2ccc(C(=O)c3ccccc3)cc2)[C@H]1O [BzATP, 3′-O-(4-benzoylbenzoyl)adenosine triphosphate]",effect on [3H]-thymidine incorporation,[1],no significant effect
same,effect of BzATP on apoptosis,HeLa cells,no significant effect
same,"physical characteristics, behavior, feeding habits, weights",mouse skin; 1.0 μg/cm^2 twice weekly,no noticeable changes
same,"epidermal apoptosis (nuclear morphology, TUNEL)",mouse skin; twice weekly,augmented apoptosis of epidermal cells; also recorded: numerous epidermal basal/parabasal cells and epidermal hair shaft cells stained TUNEL positive
same,"histological H&E evaluation, treated versus control skin",mouse skin; twice weekly,no differences
same,visible effect on the dorsal skin,mouse skin; twice weekly,no visible effect on the dorsal skin
same,TUNEL staining of papilloma tissues,"[2]; biopsy at week 10, basal/parabasal regions",intense TUNEL staining
same,decrease of mean number of papillomas per animal,[2]; versus DMBA/TPA group,about 25%
same,decrease of mean papilloma size,[2]; versus DMBA/TPA group,about 45%
same,animals having at least one papilloma,"[2]; week 6, DMBA/TPA+BzATP group",53.8%
same,papillomas per animal (mean±SEM),"[2]; week 10, DMBA/TPA+BzATP group",1.23±0.34
same,animals with at least one skin papilloma,"[2]; week 12, DMBA/TPA+BzATP group",78%
same,mean papilloma size per animal (mean±SEM),"[2]; week 12, DMBA/TPA+BzATP group",3.46 ±0.73 mm
